This note sets out measurements from patent US20210130401A1, “PEPTIDOMIMETIC INHIBITORS OF THE WDR5-MLL INTERACTION” (THE REGENTS OF THE UNIVERSITY OF MICHIGAN, priority 2017, published 2021).

Starred links: 1 amine or outer side, 2 acyl side, 3 side chain; linkers in the order of their positions; H or OH if unused. Positions of bridges follow the written chain, without caps; N, C: chain ends. Non-standard residues stand in square brackets, D forms with d. Residues, ends and D or L forms follow the SMILES beside them. ξ: configuration not given here. *: point of attachment. Orn(2-imidazolinyl) = N[C@@H](CCCNC1=NCCN1)C(=O)O; dαMeDab = C[C@](CCN[*:3])(N[*:1])C(=O)[*:2]; Lys(Me2) = CN(C)CCCC[C@H](N)C(=O)O; Cit = NC(=O)NCCC[C@H](N)C(=O)O; dCha = N[C@H](CC1CCCCC1)C(=O)O; dPhg = N[C@@H](C(=O)O)c1ccccc1; ξhhPhe = NC(CCCc1ccccc1)C(=O)O; ξhPhe = NC(CCc1ccccc1)C(=O)O; Imidazol2yl = c1c[nH]c(*)n1; Pyridin(2-yl) = c1ccc(*)nc1; 2Pyrimidinyl = c1cnc(*)nc1; Isobutyryl = CC(C)C(=O)*; Orn = NCCC[C@H](N)C(=O)O; Dab = NCC[C@H](N)C(=O)O; Abu = CC[C@H](N)C(=O)O; Dap = NC[C@H](N)C(=O)O; ξOrn = NCCCC(N)C(=O)O; Acryloyl = C=CC(=O)*; ξDab = NCCC(N)C(=O)O; ClAc = O=C(CCl)*

One assay deals with MOLM-13 leukemia cells carrying MLL-AF9 fusion. The assay can be described thus: cell viability assay (WST-8), MOLM-13. The format is cell-based. The conditions noted are these: Homo sapiens, MOLM-13, 96 h, read-out: MOLM-13 IC50 (μM).
Protocol: To assess cell viability, MOLM-13 leukemia cells carrying MLL-AF9 fusion, MV4;11 leukemia cells carrying MLL-AF4 fusion or HL-60 leukemia cells carrying no MLL fusion were seeded 1×10^4 cell/well in 96-well plates and treated with an inhibitor for 4 days at different concentrations, in culture media containing 0.2% DMSO as the final concentration. Cell viability was determined using the WST-8 cell proliferation assay kit (Dojindo Molecular Technologies) according to manufacturer's instructions. Three independent experiments in triplicates were performed.
A word on the IC50: it is the point on the concentration scale where inhibition reaches its midpoint. Consider `CC[C@@H]1NC(=O)[C@H](CCCCN(C)C)NC(=O)[C@](C)(NC(=O)C(C)C)CCNC(=O)[C@@H](c2ccccc2)NC1=O` [Cpd. No. 6, N-((3R,6S,9S,12R)-9-(4-(dimethylamino)butyl)-6-ethyl-12-methyl-2,5,8,11-tetraoxo-3-phenyl-1,4,7,10-tetraazacyclotetradecan-12-yl)isobutyramide] (Isobutyryl-[dαMeDab][Lys(Me2)][Abu][dPhg]; lactam 1-C), for which the IC50 is over 10 µM.

In the case of `CC[C@@H]1NC(=O)[C@H](CNC2CCN(C)CC2)NC(=O)[C@](C)(NC(=O)C(C)C)CCNC(=O)[C@@H](c2ccccc2)NC1=O` [Cpd. No. 7, N-((3R,6S,9S,12R)-6-ethyl-12-methyl-9-(((1-methylpiperidin-4-yl)amino)methyl)-2,5,8,11-tetraoxo-3-phenyl-1,4,7,10-tetraazacyclotetradecan-12-yl)isobutyramide], the IC50 is over 10 µM.

For `CC[C@@H]1NC(=O)[C@H](CCNC2CCN(C)CC2)NC(=O)[C@](C)(NC(=O)C(C)C)CCNC(=O)[C@@H](c2ccccc2)NC1=O` [Cpd. No. 8, N-((3R,6S,9S,12R)-6-ethyl-12-methyl-9-(2-((1-methylpiperidin-4-yl)amino)ethyl)-2,5,8,11-tetraoxo-3-phenyl-1,4,7,10-tetraazacyclotetradecan-12-yl)isobutyramide], the 50% inhibitory concentration (IC50) is over 10 µM.

For `CC[C@@H]1NC(=O)[C@H](CCCNC2CCN(C)CC2)NC(=O)[C@](C)(NC(=O)C(C)C)CCNC(=O)[C@@H](c2ccccc2)NC1=O` [Cpd. No. 9, N-((3R,6S,9S,12R)-6-ethyl-12-methyl-9-(3-((1-methylpiperidin-4-yl)arnino)propyl)-2,5,8,11-tetraoxo-3-phenyl-1,4,7,10-tetraazacyclotetradecan-12-yl)isobutyramide], the IC50 is over 10 µM.

As to `CC[C@@H]1NC(=O)[C@H](CNc2ccccn2)NC(=O)[C@](C)(NC(=O)C(C)C)CCNC(=O)[C@@H](c2ccccc2)NC1=O` [Cpd. No. 10, N-((3R,6S,9S,12R)-6-ethyl-12-methyl-2,5,8,11-tetraoxo-3-phenyl-9-((pyridin-2-ylamino)methyl)-1,4,7,10-tetraazacyclotetradecan-12-yl)isobutyramide] (Isobutyryl-[dαMeDab][Dap](Pyridin(2-yl))[Abu][dPhg]; lactam 1-C), the IC50 was over 10 µM.

As for `CC[C@@H]1NC(=O)C(CCNc2ccccn2)NC(=O)[C@](C)(NC(=O)C(C)C)CCNC(=O)[C@@H](c2ccccc2)NC1=O` (stereo partly drawn) [Cpd. No. 11, N-((3R,6S,12R)-6-ethyl-12-methyl-2,5,8,11-tetraoxo-3-phenyl-9-(2-(pyridin-2-ylamino)ethyl)-1,4,7,10-tetraazacyclotetradecan-12-yl)isobutyramide] (Isobutyryl-[dαMeDab][ξDab](Pyridin(2-yl))[Abu][dPhg]; lactam 1-C), the IC50 is over 10 µM.

In the case of `CC[C@@H]1NC(=O)C(CCc2ccccc2)NC(=O)[C@](C)(NC(=O)C(C)C)CCNC(=O)[C@@H](c2ccccc2)NC1=O` (stereo partly drawn) [Cpd. No. 13, N-((3R,6S,12R)-6-ethyl-12-methyl-2,5,8,11-tetraoxo-9-phenethyl-3-phenyl-1,4,7,10-tetraazacyclotetradecan-12-yl)isobutyramide] (Isobutyryl-[dαMeDab][ξhPhe][Abu][dPhg]; lactam 1-C), the IC50 was over 10 µM.

`CC[C@@H]1NC(=O)C(CCCc2ccccc2)NC(=O)[C@](C)(NC(=O)C(C)C)CCNC(=O)[C@@H](c2ccccc2)NC1=O` (stereo partly drawn) [Cpd. No. 14, N-((3R,6S,12R)-6-ethyl-12-methyl-2,5,8,11-tetraoxo-3-phenyl-9-(3-phenylpropyl)-1,4,7,10-tetraazacyclotetradecan-12-yl)isobutyramide] (Isobutyryl-[dαMeDab][ξhhPhe][Abu][dPhg]; lactam 1-C): the IC50 is over 10 µM.

On to `CC[C@@H]1NC(=O)[C@H](CCC(N)=O)NC(=O)[C@](C)(NC(=O)C(C)C)CCNC(=O)[C@@H](c2ccccc2)NC1=O` [Cpd. No. 15, N-((3R,6S,12R)-9-(3-amino-3-oxopropyl)-6-ethyl-12-methyl-2,5,8,11-tetraoxo-3-phenyl-1,4,7,10-tetraazacyclotetradecan-12-yl)isobutyramide] (Isobutyryl-[dαMeDab]Q[Abu][dPhg]; lactam 1-C), for which the IC50 is over 10 µM.

Turning to `CC[C@@H]1NC(=O)[C@H](CCCNC(N)=O)NC(=O)[C@](C)(NC(=O)C(C)C)CCNC(=O)[C@@H](c2ccccc2)NC1=O` [Cpd. No. 16, N-((3R,6S,9S,12R)-6-ethyl-12-methyl-2,5,8,11-tetraoxo-3-phenyl-9-(3-ureidopropyl)-1,4,7,10-tetraazacyclotetradecan-12-yl)isobutyramide] (Isobutyryl-[dαMeDab][Cit][Abu][dPhg]; lactam 1-C), the IC50 is over 10 µM.

As for `CC[C@@H]1NC(=O)[C@H](CCNC2=NCCN2)NC(=O)[C@](C)(NC(=O)C(C)C)CCNC(=O)[C@@H](c2ccccc2)NC1=O` [Cpd. No. 18, N-((3R,6S,9S,12R)-9-(2-((4,5-dihydro-1H-imidazol-2-yl)amino)ethyl)-6-ethyl-12-methyl-2,5,8,11-tetraoxo-3-phenyl-1,4,7,10-tetraazacyclotetradecan-12-yl)isobutyramide], the IC50 is over 10 µM.

Consider `CC[C@@H]1NC(=O)[C@H](CCNc2ncc[nH]2)NC(=O)[C@](C)(NC(=O)C(C)C)CCNC(=O)[C@@H](c2ccccc2)NC1=O` [Cpd. No. 19, N-((3R,6S,9S,12R)-9-(2-((1H-imidazol-2-yl)amino)ethyl)-6-ethyl-12-methyl-2,5,8,11-tetraoxo-3-phenyl-1,4,7,10-tetraazacyclotetradecan-12-yl)isobutyramide] (Isobutyryl-[dαMeDab][Dab](Imidazol2yl)[Abu][dPhg]; lactam 1-C), for which the IC50 was over 10 µM.

Take `CC[C@@H]1NC(=O)[C@H](CCCNc2ncc[nH]2)NC(=O)[C@](C)(NC(=O)C(C)C)CCNC(=O)[C@@H](c2ccccc2)NC1=O` [Cpd. No. 20, N-((3R,6S,9S,12R)-9-(3-((1H-imidazol-2-yl)amino)propyl)-6-ethyl-12-methyl-2,5,8,11-tetraoxo-3-phenyl-1,4,7,10-tetraazacyclotetradecan-12-yl)isobutyramide] (Isobutyryl-[dαMeDab][Orn](Imidazol2yl)[Abu][dPhg]; lactam 1-C): the IC50 is over 10 µM.

`CC[C@@H]1NC(=O)[C@H](CCCNc2ncccn2)NC(=O)[C@](C)(NC(=O)C(C)C)CCNC(=O)[C@@H](c2ccccc2)NC1=O` [Cpd. No. 21, N-((3R,6S,12R)-6-ethyl-12-methyl-2,5,8,11-tetraoxo-3-phenyl-9-(3-(pyrimidin-2-ylamino)propyl)-1,4,7,10-tetraazacyclotetradecan-12-yl)isobutyramide] (Isobutyryl-[dαMeDab][Orn](2Pyrimidinyl)[Abu][dPhg]; lactam 1-C): the IC50 is over 10 µM.

For the molecule `CC[C@@H]1NC(=O)[C@H](CCCN/C(N)=N/CC(F)(F)F)NC(=O)[C@](C)(NC(=O)C(C)C)CCNC(=O)[C@@H](c2ccccc2)NC1=O` [Cpd. No. 22, N-((3R,6S,9S,12R)-6-ethyl-12-methyl-2,5,8,11-tetraoxo-3-phenyl-9-(3-((E)-2-(2,2,2-trifluoroethyl)guanidino)propyl)-1,4,7,10-tetraazacyclotetradecan-12-yl)isobutyramide], the IC50 was over 10 µM.

As for `CC[C@@H]1NC(=O)[C@H](CCCNC(=N)NC(C)=O)NC(=O)[C@](C)(NC(=O)C(C)C)CCNC(=O)[C@@H](CC2CCCCC2)NC1=O` [Cpd. No. 26, N-((3R,6S,9S,12R)-9-(3-(3-acetylguanidino)propyl)-3-(cyclohexylmethyl)-6-ethyl-12-methyl-2,5,8,11-tetraoxo-1,4,7,10-tetraazacyclotetradecan-12-yl)isobutyramide] (Isobutyryl-[dαMeDab]R(Ac)[Abu][dCha]; lactam 1-C), the IC50 stood at 1.02 µM.

Turning to `CC[C@@H]1NC(=O)[C@H](CCCNC2=NCCN2)NC(=O)[C@](C)(NC(=O)C(C)C)CCNC(=O)[C@@H](CC2CCCCC2)NC1=O` [Cpd. No. 30, N-((3R,6S,9S,12R)-3-(cyclohexylmethyl)-9-(3-((4,5-dihydro-1H-imidazol-2-yl)amino)propyl)-6-ethyl-12-methyl-2,5,8,11-tetraoxo-1,4,7,10-tetraazacyclotetradecan-12-yl)isobutyramide] (Isobutyryl-[dαMeDab][Orn(2-imidazolinyl)][Abu][dCha]; lactam 1-C), the IC50 was found to be 0.67 µM.

The same assay, now with this note: Homo sapiens, MOLM-13, 96 h; Table 2A; 4 days treatment; read-out: MOLM-13 IC50.
`C=CC(=O)NCCC[C@@H]1NC(=O)[C@](C)(NC(=O)C(C)C)CCNC(=O)[C@@H](c2ccccc2)NC(=O)[C@H](CC)NC1=O` [Cpd. No. 23, N-(3-((5S,8R,13R)-5-ethyl-13-isobutyramido-13-methyl-3,6,9,14-tetraoxo-8-phenyl-1,4,7,10-tetraazacyclotetradecan-2-yl)propyl)acrylamide] (Isobutyryl-[dαMeDab][Orn](Acryloyl)[Abu][dPhg]; lactam 1-C): the IC50 is over 10 µM.

Regarding `C=CC(=O)NCCCC[C@@H]1NC(=O)[C@](C)(NC(=O)C(C)C)CCNC(=O)[C@@H](c2ccccc2)NC(=O)[C@H](CC)NC1=O` [Cpd. No. 24, N-(4-((2S,5S,8R,13R)-5-ethyl-13-isobutyramido-13-methyl-3,6,9,14-tetraoxo-8-phenyl-1,4,7,10-tetraazacyclotetradecan-2-yl)butyl)acrylamide] (Isobutyryl-[dαMeDab]K(Acryloyl)[Abu][dPhg]; lactam 1-C), the half-inhibitory concentration (IC50) is over 10 µM.

For `CC[C@@H]1NC(=O)C(CCCNC(=O)CCl)NC(=O)[C@](C)(NC(=O)C(C)C)CCNC(=O)[C@@H](c2ccccc2)NC1=O` (stereo partly drawn) [Cpd. No. 25, N-((3R,6S,12R)-9-(3-(2-chloroacetamido)propyl)-6-ethyl-12-methyl-2,5,8,11-tetraoxo-3-phenyl-1,4,7,10-tetraazacyclotetradecan-12-yl)isobutyramide] (Isobutyryl-[dαMeDab][ξOrn](ClAc)[Abu][dPhg]; lactam 1-C), the IC50 is over 10 µM.
